# Patent US20250326769A1, “HETEROAROMATIC MACROCYCLIC ETHER CHEMOTHERAPEUTIC AGENTS” (Nuvalent, Inc., priority 2022, published 2025)
# Legend:
# Format in all cases: cell-based
# [1] = biological target: Ba/F3 EML4-ALK v1 I1171N (Homo sapiens (Human), UniProt Q9HC35+Q9UM73, I1171N); test: Ba/F3 cell proliferation assay, EML4-ALK v1 I1171N; conditions: for IC50: Ba/F3 stable cells, 72 hours, CellTiter-Glo; for ETV6-TRKB / EML4-ALK v1 I1171N: TRKB selectivity, ratio of Ba/F3 IC50 values
# Description: (§1) Genes encoding EML4-ALK v1 (variant 1), EML4-ALK v1 G1202R, EML4-ALK v1 I1171IN, EML4-ALK v1 D1203N, EML4-ALK v1 I1171N/D1203N, and ETV6-TRKB were synthesized at GeneRay, cloned into the retroviral construct pMSCV-puro (Biovector), and packaged into retroviral particles. The virus was used to infect Ba/F3 cells (RIKEN) at multiplicity of infection=1 for 1 day. Infected cells were rescued in media (RPMI-1640 with 10% fetal bovine serum and 1% streptomycin and penicillin) supplemented with mouse IL-3 (10 ng/mL) for 2 days, and stable cell lines were selected by IL-3 withdrawal and puromycin (0.8 μg/mL) for 7 days. Monoclones were selected by single-cell dilution in IL-3-free medium containing puromycin (0.8 μg/mL). Transformation of desired genes was confirmed by Sanger sequencing and western blot using the following antibodies: ALK (CST #3633) and pan-TRK (Abcam #76291).
# (§2) Stable cells were plated in a 384-well plate. Test compounds were then added in a 3-fold dilution series and incubated for 72 hours. CellTiter-Glo reagent (Promega) was added. Luminescence was measured on a plate reader. Half-maximal inhibitory concentration (ICso) was calculated from percent inhibition and inhibitor concentration using four-parameter logistic regression. Compound potency can be interpreted by binning IC50 values: bin A for high potency, 0.1 nM IC50<50 nM; bin B for medium potency, 50 nM<IC50<500 nM; and bin C for low potency, IC50>500 nM. […] Exemplary data is given in Table 4 (nd is not determined).
# (§3) Ba/F3 proliferation is driven by the transduced oncogenes in the same way that cancer cell proliferation in humans is driven by the expression of equivalent oncogenes.
# (§4) TRKB selectivity was calculated by dividing a compound's TRKB potency by its primary target potency (e.g., ETV6-TRKB IC50/EML4-ALK v1 IC50). Compound selectivity can be interpreted by binning ratio values: bin A for very high selectivity, ratio≥30-fold; bin B for high selectivity, ratio≥10-fold but<30; bin C for moderate selectivity, ratio≥1 but<10; and bin D for low selectivity, ratio<1. […] (nd=not determined).
# [2] = biological target: Ba/F3 EML4-ALK v1 I1171N/D1203N (Homo sapiens (Human), UniProt Q9HC35+Q9UM73, D1203N/I1171N); test: Ba/F3 cell proliferation assay, EML4-ALK v1 I1171N/D1203N; conditions: for IC50: Ba/F3 stable cells, 72 hours, CellTiter-Glo; for ETV6-TRKB / EML4-ALK v1 I1171N/D1203N / Selectivity for Ba/F3 EML4-ALK v1 I1171N-D1203N IC50 over Ba/F3 ETV6-TRKB IC50: TRKB selectivity, ratio of Ba/F3 IC50 values; for Selectivity for Ba/F3 EML4-ALK v1 I1171N-D1203N IC50 over Ba/F3 ETV6-TRKB IC50: Table 6 bins
# Chain of Ba/F3 EML4-ALK v1 I1171N/D1203N (Q9UM73 other isoform, or with tags, fused parts or gaps I1171N/D1203N): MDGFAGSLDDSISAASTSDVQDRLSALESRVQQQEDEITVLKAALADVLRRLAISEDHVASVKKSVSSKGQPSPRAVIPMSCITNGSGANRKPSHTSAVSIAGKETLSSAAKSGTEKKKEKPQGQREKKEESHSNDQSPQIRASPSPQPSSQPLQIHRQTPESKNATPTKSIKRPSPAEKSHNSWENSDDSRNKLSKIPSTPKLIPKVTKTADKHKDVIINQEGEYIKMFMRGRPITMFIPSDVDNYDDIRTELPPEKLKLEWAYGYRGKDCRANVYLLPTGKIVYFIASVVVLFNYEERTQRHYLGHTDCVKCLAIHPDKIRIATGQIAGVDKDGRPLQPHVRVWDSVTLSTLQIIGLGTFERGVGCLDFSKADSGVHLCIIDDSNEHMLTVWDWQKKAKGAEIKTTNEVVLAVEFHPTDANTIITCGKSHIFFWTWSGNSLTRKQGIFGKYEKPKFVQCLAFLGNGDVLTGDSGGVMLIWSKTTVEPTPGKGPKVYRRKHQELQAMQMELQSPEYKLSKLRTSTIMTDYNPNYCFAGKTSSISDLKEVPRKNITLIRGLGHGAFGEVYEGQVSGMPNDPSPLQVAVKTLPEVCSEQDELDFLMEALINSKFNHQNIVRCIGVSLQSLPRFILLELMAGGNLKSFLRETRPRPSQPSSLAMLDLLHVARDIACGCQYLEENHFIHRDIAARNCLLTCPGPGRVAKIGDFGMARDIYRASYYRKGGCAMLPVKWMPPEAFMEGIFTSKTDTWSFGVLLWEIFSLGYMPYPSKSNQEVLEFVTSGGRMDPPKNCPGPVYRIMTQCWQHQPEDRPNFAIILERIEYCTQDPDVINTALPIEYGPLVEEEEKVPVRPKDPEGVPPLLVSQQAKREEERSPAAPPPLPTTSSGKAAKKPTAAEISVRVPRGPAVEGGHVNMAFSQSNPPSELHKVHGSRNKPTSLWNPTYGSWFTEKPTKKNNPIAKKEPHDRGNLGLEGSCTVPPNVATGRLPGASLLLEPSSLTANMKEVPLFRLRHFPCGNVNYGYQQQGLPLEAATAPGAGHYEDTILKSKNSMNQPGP
# Description: as §1, §2, §3, §4
# Additional exemplified compounds were also tested against ALK-INDN and TRKB. The TRKB selectivity was calculated by dividing a compound's TRKB potency by its primary target potency (e.g., ETV6-TRKB IC50/EMIL4-ALK I1171N-D1203N v1 IC50). Compound selectivity can be interpreted by binning ratio values: bin AA for the selectivity with the ratio≥30-fold; bin BB for the selectivity with the ratio≥10-fold but<30; bin CC for the selectivity with the ratio≥5 but<10; bin DD for the selectivity with the ratio≥1 but<5; and bin EE for the selectivity with the ratio<1.
# [3] = biological target: Ba/F3 ETV6-TRKB (Homo sapiens, UniProt Q16620); test: Ba/F3 cell proliferation assay, ETV6-TRKB; conditions: Ba/F3 stable cells, 72 hours, CellTiter-Glo; read-out: ETV6-TRKB IC50
# Chain of Ba/F3 ETV6-TRKB (Q16620 32-822 limits assumed, change not shown): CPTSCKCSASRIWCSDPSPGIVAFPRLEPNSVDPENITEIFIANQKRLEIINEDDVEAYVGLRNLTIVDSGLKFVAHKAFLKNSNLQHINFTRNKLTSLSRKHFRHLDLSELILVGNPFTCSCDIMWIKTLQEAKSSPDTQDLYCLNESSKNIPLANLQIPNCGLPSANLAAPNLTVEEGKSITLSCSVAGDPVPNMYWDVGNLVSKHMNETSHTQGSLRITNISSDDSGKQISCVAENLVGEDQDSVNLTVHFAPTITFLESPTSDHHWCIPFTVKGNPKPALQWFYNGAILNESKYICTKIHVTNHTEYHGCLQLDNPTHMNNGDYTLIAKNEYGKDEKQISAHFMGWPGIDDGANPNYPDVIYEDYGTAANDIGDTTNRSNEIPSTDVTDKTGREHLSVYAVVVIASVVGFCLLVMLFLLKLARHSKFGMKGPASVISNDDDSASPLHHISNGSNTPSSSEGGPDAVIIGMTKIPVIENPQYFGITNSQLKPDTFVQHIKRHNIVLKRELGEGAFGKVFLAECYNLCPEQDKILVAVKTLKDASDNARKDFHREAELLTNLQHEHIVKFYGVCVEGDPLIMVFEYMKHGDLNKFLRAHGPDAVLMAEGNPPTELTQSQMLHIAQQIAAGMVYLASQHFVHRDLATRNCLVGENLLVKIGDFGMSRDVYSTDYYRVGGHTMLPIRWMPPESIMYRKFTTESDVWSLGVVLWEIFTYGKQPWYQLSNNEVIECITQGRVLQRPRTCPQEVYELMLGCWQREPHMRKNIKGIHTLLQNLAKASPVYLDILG
# Description: as §1, §2, §3
# Chain of Ba/F3 EML4-ALK v1 I1171N (Q9UM73 other isoform, or with tags, fused parts or gaps I1171N): as the sequence (Q9UM73 other isoform, or with tags, fused parts or gaps I1171N/D1203N) above, with N642D counted along it
Structure (SMILES),IC50 [1] [nM],ETV6-TRKB / EML4-ALK v1 I1171N [1],IC50 [2] [nM],ETV6-TRKB / EML4-ALK v1 I1171N/D1203N [2],IC50 [3] [nM],Selectivity for Ba/F3 EML4-ALK v1 I1171N-D1203N IC50 over Ba/F3 ETV6-TRKB IC50 [2]
"CCc1c2c(nn1C)C(=O)c1cccnc1-c1ccc(F)cc1[C@@H](C)Oc1cc-2cnc1N [Example 54, (R)-23-amino-3-ethyl-17-fluoro-4-methyl-20-methyl-21-oxa-4,5,12,24-tetraazapentacyclo[20.3.1.0^2,^6.0^8,^13.0^14,^19]hexacosa-1(25),2,5,8,10,12,14,16,18,22(26),23-undecaen-7-one]",0.1 to 50,"C (bin C for moderate selectivity, ratio≥1 but<10)",0.1 to 50,"B (bin B for high selectivity, ratio≥10-fold but<30)",0.1 to 50,
"CCn1ncc2c1-c1cnc(N)c(c1)O[C@H](C)c1cc(F)ccc1-c1ncccc1O2 [Example 14, (R)-3-ethyl-17-fluoro-20-methyl-7,21-dioxa-3,4,12,24-tetraazapentacyclo[20.3.1.0^2,^6.0^8,^13.0^14,^19]hexacosa-1(25),2(6),4,8(13),9,11,14,16,18,22(26),23-undecaen-23-ylamine]",0.1 to 50,,50 to 500,,0.1 to 50,
"C[C@H]1Oc2cc(cnc2N)-c2c(nn(C)c2C#N)C(=O)c2cccnc2-c2c(F)cc(F)cc21 [Example 21, (R)-23-amino-15,17-difluoro-4-methyl-20-methyl-7-oxo-21-oxa-4,5,12,24-tetraazapentacyclo[20.3.1.0^2,^6.0^8,^13.0^14,^19]hexacosa-1(25),2,5,8,10,12,14,16,18,22(26),23-undecaene-3-carbonitrile]",0.1 to 50,"B (bin B for high selectivity, ratio≥10-fold but<30)",0.1 to 50,"A (bin A for very high selectivity, ratio≥30-fold)",50 to 500,AA (bin AA for the selectivity with the ratio≥30-fold)
"Cc1nc2c(s1)C(=O)c1nn(C)c(C#N)c1-c1cnc(N)c(c1)O[C@H](C)c1cc(F)ccc1-2 [Example 73, (R)-22-amino-16-fluoro-4-methyl-10,19-dimethyl-7-oxo-20-oxa-9-thia-4,5,11,23-tetraazapentacyclo[19.3.1.0^2,^6.0^8,^12.0^13,^18]pentacosa-1(24),2,5,8(12),10,13,15,17,21(25),22-decaene-3-carbonitrile]",0.1 to 50,,0.1 to 50,,50 to 500,
"CC1Oc2cc(cnc2N)-c2c(c(C#N)nn2CC2CC2)Cc2cn(C)nc2-c2c(F)cc(F)cc21 (stereo not drawn) [Example 70, 22-amino-3-(cyclopropylmethyl)-14,16-difluoro-10,19-dimethyl-20-oxa-3,4,10,11,23-pentaazapentacyclo[19.3.1.0^2,^6.0^8,^12.0^13,^18]pentacosa-1(24),2(6),4,8,11,13,15,17,21(25),22-decaene-5-carbonitrile]",,,> 500,"C (bin C for moderate selectivity, ratio≥1 but<10)",> 500,
"C[C@H]1Oc2nc(cnc2N)-c2c(nn(C)c2C#N)C(=O)c2cccnc2-c2ccc(F)cc21 [Example 75, (R)-23-amino-17-fluoro-4-methyl-20-methyl-7-oxo-21-oxa-4,5,12,24,26-pentaazapentacyclo[20.3.1.0^2,^6.0^8,^13.0^14,^19]hexacosa-1(25),2,5,8(13),9,11,14,16,18,22(26),23-undecaene-3-carbonitrile]",,,0.1 to 50,"A (bin A for very high selectivity, ratio≥30-fold)",0.1 to 50,
"C[C@H]1Oc2cc(cnc2N)-c2c(C#N)nn(C)c2C(=O)c2cccnc2-c2c(F)cc(F)cc21 [Example 22, (R)-23-amino-15,17-difluoro-5-methyl-20-methyl-7-oxo-21-oxa-4,5,12,24-tetraazapentacyclo[20.3.1.0^2,^6.0^8,^13.0^14,^19]hexacosa-1(25),2(6),3,8,10,12,14,16,18,22(26),23-undecaene-3-carbonitrile]",,,0.1 to 50,"A (bin A for very high selectivity, ratio≥30-fold)",> 500,AA (bin AA for the selectivity with the ratio≥30-fold)
"C[C@H]1Oc2cc(cnc2N)-c2c(C#N)nn(C)c2C(=O)c2cccnc2-c2ccc(F)cc21 [Example 25, (R)-23-amino-17-fluoro-5-methyl-20-methyl-7-oxo-21-oxa-4,5,12,24-tetraazapentacyclo[20.3.1.0^2,^6.0^8,^13.0^14,^19]hexacosa-1(25),2(6),3,8(13),9,11,14,16,18,22(26),23-undecaene-3-carbonitrile]",,,0.1 to 50,"A (bin A for very high selectivity, ratio≥30-fold)",> 500,AA (bin AA for the selectivity with the ratio≥30-fold)
"Cc1nc2c(s1)C(=O)c1c(c(C#N)nn1C)-c1cnc(N)c(c1)O[C@H](C)c1cc(F)ccc1-2 [Example 74, (R)-22-amino-16-fluoro-5-methyl-10,19-dimethyl-7-oxo-20-oxa-9-thia-4,5,11,23-tetraazapentacyclo[19.3.1.0^2,^6.0^8,^12.0^13,^18]pentacosa-1(24),2(6),3,8(12),10,13,15,17,21(25),22-decaene-3-carbonitrile]",,,50 to 500,"C (bin C for moderate selectivity, ratio≥1 but<10)",> 500,CC (bin CC for the selectivity with the ratio≥5 but<10)
"CC(C)N(C)C(=O)c1nn(CC2CC2)c2c1Cc1cn(C)nc1-c1ccc(F)cc1[C@@H](C)Oc1cc-2cnc1N [Example 37, N-isopropyl-N-methyl-(R)-22-amino-3-(cyclopropylmethyl)-16-fluoro-10-methyl-19-methyl-20-oxa-3,4,10,11,23-pentaazapentacyclo[19.3.1.0^2,^6.0^8,^12.0^13,^18]pentacosa-1(24),2(6),4,8,11,13,15,17,21(25),22-decaene-5-carboxamide]",,,50 to 500,,> 500,
"CCc1nn(C(=O)N(C)C)c2c1-c1cnc(N)c(c1)O[C@H](C)c1cc(F)ccc1-c1ncccc1C2 [Example 24, (R)-5-(N,N-dimethylcarbamoyl)-3-ethyl-17-fluoro-20-methyl-21-oxa-4,5,12,24-tetraazapentacyclo[20.3.1.0^2,^6.0^8,^13.0^14,^19]hexacosa-1(25),2(6),3,8(13),9,11,14,16,18,22(26),23-undecaen-23-ylamine]",,,0.1 to 50,"C (bin C for moderate selectivity, ratio≥1 but<10)",0.1 to 50,
"Cc1cc2n(n1)-c1c(F)cc(F)cc1[C@@H](C)Oc1cc(cnc1N)-c1c(C#N)nn(C)c1C2=O [Example 69, (R)-22-amino-14,16-difluoro-5-methyl-10,19-dimethyl-7-oxo-20-oxa-4,5,11,12,23-pentaazapentacyclo[19.3.1.0^2,^6.0^8,^12.0^13,^18]pentacosa-1(24),2(6),3,8,10,13,15, 17,21(25),22-decaene-3-carbonitrile]",,,0.1 to 50,"B (bin B for high selectivity, ratio≥10-fold but<30)",50 to 500,
"Cc1cc2n(n1)-c1c(F)cc(F)cc1[C@@H](C)Oc1cc(cnc1N)-c1c(nn(C)c1C#N)C2=O [Example 68, (R)-22-amino-14,16-difluoro-4-methyl-10,19-dimethyl-7-oxo-20-oxa-4,5,11,12,23-pentaazapentacyclo[19.3.1.0^2,^6.0^8,^12.0^13,^18]pentacosa-1(24),2,5,8,10,13,15,17,21(25),22-decaene-3-carbonitrile]",,,50 to 500,,> 500,
